Key:
D(4) dopamine receptor = target: T1, D(4) dopamine receptor (Homo sapiens, UniProt P21917); assay: biochemical
T1 sequence (P21917 whole entry): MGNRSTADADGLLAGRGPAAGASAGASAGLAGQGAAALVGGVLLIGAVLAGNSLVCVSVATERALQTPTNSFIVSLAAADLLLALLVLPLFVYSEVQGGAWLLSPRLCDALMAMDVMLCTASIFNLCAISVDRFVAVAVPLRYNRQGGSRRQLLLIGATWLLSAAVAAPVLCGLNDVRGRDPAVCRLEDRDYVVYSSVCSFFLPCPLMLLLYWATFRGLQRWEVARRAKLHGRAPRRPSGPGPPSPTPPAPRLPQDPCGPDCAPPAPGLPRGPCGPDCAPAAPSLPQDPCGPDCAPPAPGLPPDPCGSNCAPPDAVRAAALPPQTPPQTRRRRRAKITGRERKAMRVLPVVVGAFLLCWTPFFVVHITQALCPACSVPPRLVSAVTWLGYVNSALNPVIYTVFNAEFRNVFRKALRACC
Description: In vitro binding affinity at human D4 dopamine receptor in CHO cells by [3H]spiperone displacement.

[1] = The compound was tested In Vitro for half life in human liver microsomes.; format: ADME, Microsome
[2] = target: 5-hydroxytryptamine receptor 2A (Homo sapiens, UniProt P28223); assay: In vitro binding affinity against 5-hydroxytryptamine 2A receptor in CHO cells; format: cell-based
Rattus norvegicus [3] = assay: Compound was tested for antagonistic activity against APO-induced stereotypy in rats when administered po; format: functional; details: read-out: ID50 (the source's name)
Rattus norvegicus [4] = assay: Compound was tested for spontaneous locomotor activity in nonhabituated rats when administered po; format: functional; details: read-out: ID50 (the source's name)
[5] = In vivo half life of compound in rat plasma after a oral dose of 10 mg/kg (in water, N=4); format: ADME, organism-based; design: dose 10 mg/kg, route oral
Rattus norvegicus [6] = assay: in vivo for inhibition against hyperactivity induced by apomorphine (1.78 mg/kg) in habituated rats by subcutaneous administration; format: functional; details: sc, read-out: ID50 (the source's name)
Rattus norvegicus [7] = assay: Compound was tested for inhibition of APO-induced blockade of prepulse inhibition in rats when administered sc; format: functional; details: read-out: ID50 (the source's name)
[8] = target: T2, 5-hydroxytryptamine receptor 1A (Mus musculus, UniProt Q64264); assay: In vitro binding affinity against 5-hydroxytryptamine 1A receptor in CHO cells; format: cell-based
T2 sequence (Q64264 whole entry): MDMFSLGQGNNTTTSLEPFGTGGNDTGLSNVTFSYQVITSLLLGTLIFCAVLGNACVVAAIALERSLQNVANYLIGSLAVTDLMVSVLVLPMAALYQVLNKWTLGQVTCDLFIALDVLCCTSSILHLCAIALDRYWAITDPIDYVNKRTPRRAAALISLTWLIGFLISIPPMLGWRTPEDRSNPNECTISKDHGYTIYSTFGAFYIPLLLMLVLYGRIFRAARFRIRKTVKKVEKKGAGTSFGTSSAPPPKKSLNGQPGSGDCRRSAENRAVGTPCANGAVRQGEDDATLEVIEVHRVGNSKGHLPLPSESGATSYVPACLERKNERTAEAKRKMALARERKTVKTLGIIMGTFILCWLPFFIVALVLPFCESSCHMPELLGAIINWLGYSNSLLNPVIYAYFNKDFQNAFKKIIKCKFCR

D(3) dopamine receptor = D(3) dopamine receptor (Homo sapiens, UniProt P35462); assay: In vitro binding affinity against human D3 dopamine receptor in CHO cells using [3H]spiperone; format: cell-based
[9] = In vivo maximum concentration of compound in rat plasma after a oral dose of 10 mg/kg (in water, N=4); format: ADME, organism-based; design: dose 10 mg/kg, route oral
[10] = In vivo percentage mean absolute bioavailability of compound in rat after an oral dose of 10 mg/kg (in water, N=4); format: ADME, organism-based
Rattus norvegicus [11] = assay: in vivo for inhibition against hyperactivity induced by apomorphine (1.78 mg/kg) in habituated rats by oral administration; format: functional; details: read-out: ID50 (the source's name)

Sequence of D(3) dopamine receptor (P35462 whole entry): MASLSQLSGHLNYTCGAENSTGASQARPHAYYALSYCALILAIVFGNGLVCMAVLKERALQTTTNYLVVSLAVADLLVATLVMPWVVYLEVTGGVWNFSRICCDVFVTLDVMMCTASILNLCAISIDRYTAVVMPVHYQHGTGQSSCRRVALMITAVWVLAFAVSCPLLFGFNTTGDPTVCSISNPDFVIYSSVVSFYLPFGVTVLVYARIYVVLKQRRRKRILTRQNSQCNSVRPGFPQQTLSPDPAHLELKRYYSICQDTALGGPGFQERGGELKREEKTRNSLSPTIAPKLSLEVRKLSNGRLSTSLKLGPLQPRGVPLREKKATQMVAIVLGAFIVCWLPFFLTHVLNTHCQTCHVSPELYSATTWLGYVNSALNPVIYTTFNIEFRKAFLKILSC
Sequence of 5-hydroxytryptamine receptor 2A (P28223 whole entry): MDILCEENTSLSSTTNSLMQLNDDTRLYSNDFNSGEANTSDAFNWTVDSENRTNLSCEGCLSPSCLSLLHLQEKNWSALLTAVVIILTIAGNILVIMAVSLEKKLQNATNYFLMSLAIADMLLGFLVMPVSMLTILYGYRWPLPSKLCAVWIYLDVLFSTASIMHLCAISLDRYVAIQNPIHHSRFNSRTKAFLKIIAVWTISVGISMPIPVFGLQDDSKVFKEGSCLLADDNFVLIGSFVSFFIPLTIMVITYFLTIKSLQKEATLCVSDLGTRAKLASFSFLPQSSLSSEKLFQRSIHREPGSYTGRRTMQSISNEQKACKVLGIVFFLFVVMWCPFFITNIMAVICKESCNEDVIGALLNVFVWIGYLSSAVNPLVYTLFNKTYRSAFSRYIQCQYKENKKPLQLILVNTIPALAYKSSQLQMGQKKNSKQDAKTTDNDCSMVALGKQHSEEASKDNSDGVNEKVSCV

Compound | Ki (D(4) dopamine receptor) [nM] | also measured
CC(=O)Nc1ccc(OC[C@@H]2CC[C@H]3CN(c4ncccn4)CCN3C2)cc1 | 316 | –
c1ccc(OCC2CCC3CN(c4ncccn4)CCN3C2)cc1 (stereo unspecified) | 3.8 | –
Fc1ccc(OC[C@H]2CC[C@@H]3CN(c4ncc(F)cn4)CCN3C2)cc1 | 106 | –
COC(=O)c1ccc(OC[C@@H]2CC[C@H]3CN(c4ncccn4)CCN3C2)cc1 | 127 | –
c1ccc(OC[C@@H]2CC[C@H]3CN(c4ncccn4)CCN3C2)cc1 | 3.5 | half-life [1]: 3 min
Fc1ccc(OC[C@@H]2CC[C@H]3CN(c4ccc(F)cc4)CCN3C2)cc1 | 5.3 | –
Fc1ccc(OC[C@@H]2CC[C@@H]3CN(c4ncc(F)cn4)CCN3C2)cc1 | 39 | –
CC(C)(C)c1ccc(OC[C@@H]2CC[C@H]3CN(c4ncccn4)CCN3C2)cc1 | 20 | –
c1ccc(OC[C@@H]2CC[C@H]3CN(c4ccccn4)CCN3C2)cc1 | 1.7 | –
COc1ccc(OC[C@@H]2CC[C@H]3CN(c4ncccn4)CCN3C2)cc1 | 18 | –
c1ccc(OC[C@H]2CC[C@H]3CN(c4ncccn4)CCN3C2)cc1 (stereo in doubt; 3a) | 4.1 | –
c1ccc(OC[C@H]2CC[C@H]3CN(c4ncccn4)CCN3C2)cc1 (stereo in doubt; 3b) | 1.7 | –

Second part, led by results:

Ki (D(4) dopamine receptor) [nM] | Compound | also measured
2.8 | Fc1ccc(OC[C@@H]2CC[C@H]3CN(c4ncccn4)CCN3C2)cc1 | half-life [1]: 3.6 min
3.2 | Fc1ccc(OC[C@@H]2CC[C@H]3CN(c4ccc(Cl)cn4)CCN3C2)cc1 | –
2 | Fc1ccc(OC[C@H]2CC[C@H]3CN(c4ncc(F)cn4)CCN3C2)cc1 | –
1.6 | c1ccc(OC[C@@H]2CC[C@H]3CN(c4ccccc4)CCN3C2)cc1 | –
3.4 | Fc1ccc(OC[C@@H]2CC[C@H]3CN(c4ncc(F)cn4)CCN3C2)cc1 | IC50 [2]: 150 nM; ED50 (Rattus norvegicus [3]): > 56 mg/kg; ED50 (Rattus norvegicus [4]): > 56 mg/kg; half-life [5]: 270 min; ED50 (Rattus norvegicus [6]): 10 mg/kg; ED50 (Rattus norvegicus [7]): 17.8 mg/kg; half-life [1]: 12.2 min; IC50 [8]: 180 nM; Ki (D(3) dopamine receptor): > 2000 nM; Cmax [9]: 730 ng/mL; bioavailability [10]: 93%; ED50 (Rattus norvegicus [11]): 13.3 mg/kg

Reference: ChEMBL document CHEMBL1131659, “Synthesis, SAR and pharmacology of CP-293,019: a potent, selective dopamine D4 receptor antagonist” (Bioorg Med Chem Lett, 1998)
